The assay deals with electrical activity of the prefrontal cortex. As to the kind of experiment: Quantitative EEG spectral analysis (FFT relative powers) in conscious rats. The format is in vivo, Wistar rats. The following applies: for actual EEG effect: MFA 0.4 mg/kg ip; for increase in the relative powers in the prefrontal cortex: paroxetine 0.5 mg/kg ip alone. On the procedure: A group of 6 conscious Wistar rats was pre-implanted with 6 bipolar bilateral electrodes (2 frontal, 2 anterior hippocampic, 2 posterior hippocampic).
Different treatments were conducted by circular combination of 6 rats by treatment (psychotropic treatment alone, anti-connexin treatment alone, anti-connexin+psychotropic combination treatment). The injection of meclofenamic acid (Sigma) is performed by slow submeningeal injection (80 ng/kg, 4.5 pg/second) or intraperitoneally at different doses. The injection of glycyrrhetinic acid (Sigma) is performed by submeningeal injection (80 ng/kg). The injection of clozapine (Sigma) is performed intraperitoneally (0.2 mg/kg). The injection of paroxetine (Sigma) is performed intraperitoneally (0.5 mg/kg). The injection of modafinil (Cephalon) is performed intraperitoneally (125 mg/kg and 250 mg/kg).
The EEG measurements were performed on the different groups of conscious rats (previously implanted and habituated) by 2-hour recordings after injection. The spectral analysis performed by Fourier transform (FFT) makes it possible to obtain relative powers, Hertz-by-Hertz and second-by-second. The FFT data is then averaged minute-by-minute and associated with the solvent control produced the day prior to the recording under strictly identical experimental conditions. The relative spectral powers of the left and right prefrontal cortices are then averaged by 5-minute periods, averaged by groups of 12 5-minute repetitions and represented hour-by-hour.
The data obtained from the relative quantitative EEG analysis of the effects of the different drugs administered individually (psychotropic alone or anti-connexin agents alone), presented in the examples, were subjected to a statistical analysis by analysis of variance (ANOVA) with three factors: “Frequency” (by Hz), “Time” (first and second hour by 12 averaged 5-minute repetitions) and “Animal” (6 different animals for each treatment). For the combinations of psychotropic and anti-connexin agents presented in the examples, a fourth ANOVA factor was introduced: “Anti-connexin combination”. The significance threshold of the relative power modifications for a given frequency for a psychotropic drug alone with respect to the control (solvent of the psychotropic agent) or a psychotropic drug in combination with an anti-connexin with respect to the psychotropic agent administered alone (in favor of a relative power increase or a decrease) was chosen at a value of P<0.05.

[1] abbreviates: diazepam 1 mg/kg ip alone, first hour.

In the case of `NC(=O)C[S+]([O-])C(c1ccccc1)c1ccccc1` (stereo not drawn) [modafinil], the “increase in the EEG potential / synchronization of the prefrontal cerebral activity” value by setting is: (modafinil 125 mg/kg ip alone, 2-5 Hz) 120%; (modafinil 250 mg/kg ip alone, 2-5 Hz) 300%.
As for `COc1ccc(C(CN(C)C)C2(O)CCCCC2)cc1` (stereo not drawn) [venlafaxine], the “increase in power of the 8-10 Hz components” value reads like this: (venlafaxine 0.16 mg/kg ip alone, first hour) “around 120%”; (venlafaxine 4 mg/kg ip alone, first hour) around 200%.
Regarding `CN(C)CCC[C@@]1(c2ccc(F)cc2)OCc2cc(C#N)ccc21` [escitalopram], the “increase in power of the 6-8 Hz components” value (escitalopram 0.8 mg/kg ip alone, first hour) is recorded as “around 150%” and the “increase in power of the 6-8 Hz components” value (escitalopram 4 mg/kg ip alone, first hour) was around 200%.
With `CN1C(=O)CN=C(c2ccccc2)c2cc(Cl)ccc21` [diazepam], under setting [1], the “decrease in power of the 4-7 Hz components” value is “around 25%” and the “increase in the power of the 11-30 Hz components” value is recorded as “around 120%”.
In the case of `Cc1ccc(Cl)c(Nc2ccccc2C(=O)O)c1Cl` [MFA, Benzoic 2-[(2,6-di-chloro-3-phenyl)amino] acid], the “increase in the EEG potential / synchronization of the prefrontal cerebral activity” value (MFA 80 ng/kg submeningeal, 8-10 Hz, first hour extending to second hour) is reported as 140%. The “actual EEG effect” value is recorded as “no significant modification” (first hour) and “slight significant increase” (second hour). Besides, the “synchronization of the prefrontal cerebral activity at the second hour” value by setting is: (MFA central administration (80 ng/kg submeningeal), second hour) “decreases”; (MFA peripheral administration (2.45 mg/kg ip), second hour) “significant increase in synchronization continues at the second hour”.
For `CC(NC(C)(C)C)C(=O)c1cccc(Cl)c1` (stereo not drawn) [bupropion], the “increase in power of the 8-10 Hz components” value (bupropion 0.16 mg/kg ip alone, first hour) was “around 180%”; the “increase in power of the 8-10 Hz components” value (bupropion 0.8 mg/kg ip alone, first hour) is recorded as around 450%; the “increase in power of the 8-10 Hz components” value (bupropion 4 mg/kg ip alone, first hour) was around 280%.
Turning to `Fc1ccc([C@@H]2CCNC[C@H]2COc2ccc3c(c2)OCO3)cc1` [paroxetine], the “increase in the relative powers in the prefrontal cortex” value reads like this: (8-10 Hz, first hour) “around 200%”; (8-10 Hz, second hour) “around 300%”.
Consider `CN1CCN(C2=Nc3cc(Cl)ccc3Nc3ccccc32)CC1` [clozapine], for which, where the note is “clozapine 0.2 mg/kg ip alone, 8-10 Hz, from first hour extending to second hour”, the “increase in the EEG potential / synchronization of the prefrontal cerebral activity” value is reported as 200%.
For `CN[C@H]1CC[C@@H](c2ccc(Cl)c(Cl)c2)c2ccccc21` [sertraline], the “increase in power of the 7-9 Hz components” value is “around 260%” (sertraline 0.16 mg/kg ip alone, first hour); “around 260%” (sertraline 0.8 mg/kg ip alone, first hour); around 200% (sertraline 4 mg/kg ip alone, first hour). Moreover, the “increase in power of the same components at the second hour” value (sertraline 0.8 mg/kg ip alone, second hour) is given as 900% and the “increase in power of the same components at the second hour” value (sertraline 4 mg/kg ip alone, second hour) amounted to 450%.

These data come from patent US11077080B2, “Use of anti-connexin agents for modulating the therapeutic effect of psychotropic drugs” (Commissariat A L'Energie Atomique Et Aux Energies …, priority 2008, dated 2021).
